# Data from PMC4265395 (Malaria Journal, 2014).
# Read-outs that look alike come from different tables or passages of the source. Marks after values point to notes of the source that are not given here.
# What was measured:
# [1] = test system: CQ-S P. falciparum parasites (3D7 strain); assay: anti-HRPII test, P. falciparum CQ-S 3D7 strain in culture; format: cell-based, Plasmodium falciparum; details: for SI (MLD50/IC50) 3D7 (CQ-S): MLD50 HepG2 / IC50 3D7; for IC50: Plasmodium falciparum; for Activity class against CQ-S parasites (3D7): in vitro, class by IC50
# Procedure: (§1) Before tests with the molecules were performed, ring stage parasites were synchronized using sorbitol and the parasitaemia and haematocrit were adjusted; 180 μL/well was added to 96-well microtiter plates (Corning, Santa Clara, CA, USA) containing the diluted compounds tested in triplicate. Drug activity was evaluated in relation to control cultures with no drugs and was measured using the anti-histidine-rich protein II (HRPII) test as described. CQ was used in each test as a control, and two to four experiments were performed for each parasite strain.
# (§2) The cultures were added to plates containing the diluted drugs, followed by incubation for 24 h under standard culture conditions. The contents of six wells with no drugs were harvested in each test plate, pooled in microtubes, and frozen for later use to measure the background parasite growth as described. […] Phosphate-buffered saline (PBS) containing 0.05% Tween and 4% bovine serum albumin was used for plate blocking (3 h at room temperature) to avoid nonspecific antibody binding. After 1 h at room temperature, the plate was washed, and 100 μL/well of a secondary antibody solution (MPFG-55P ICLLAB®, USA) was added, followed by incubation with 3,3′,5,5′-tetramethylbenzidine (TMB) chromogen (KPL, Gaithersburg, MD, USA) in the dark. […] The anti-P. falciparum drug activity was evaluated by comparing the parasite growth in the drug-free control cultures, considered 100% growth, with that in the drug test cultures.
# HepG2 cells = format: cell-based; details: human, 24 h
# Procedure: A human hepatoma cell line (HepG2), originally received from the University of Lisbon as a kind gift, was cultured as described. […] When confluent, the cell monolayer was trypsinized, washed with culture medium supplemented with 10% FCS, counted, diluted (5 × 10^3 cells/well), placed in flat-bottom 96-well plates (Corning, Santa Clara, CA, USA), and incubated for 18 h at 37°C to allow cell adhesion. […] After 3 h, the supernatant was discarded, 100 μL of dimethyl sulphoxide (DMSO) was added per well, and the optical density was measured (SpectraMax340PC384, Molecular Devices) at 570 nm (test) and 630 nm (background). Cell viability was expressed as the percentage of the absorbance compared to the absorbance of the untreated cells and subtracted from the appropriate background measurement.
# [2] = test system: P. berghei NK65 CQ-resistant strain; format: in vivo, P. berghei in Swiss mice; details: for Activity class against CQ-resistant P. berghei in mice: 25 mg/kg
# Procedure: (§3) The protocol for animal use was approved by the Ethics Committee for Animal Use (CEUA LW-23/13) of the Oswaldo Cruz Foundation (Fiocruz). Only Swiss adult female mice (20 ± 2 g weight) were used; they were raised at the animal facilities at FIOCRUZ-Minas.
# A P. berghei NK65 CQ-resistant strain maintained at -70°C, selected by increasing doses of CQ, maintained in mice under constant drug pressure (CQ 150 mg/kg) and stored at -70°C was also defrosted and used to inoculate mice. […] The mice were inoculated with 10^7 parasitized RBCs using blood parasites from a donor with parasites resistant to 150 mg/kg of CQ. Groups of five mice each were separated 24 h after the parasite inoculation, then treated orally with the test CQAn at doses of 25 or 50 mg/kg for three consecutive days. Two control groups were used in each experiment; one received CQ at 150 mg/kg and the other was infected but treated with vehicle only (no drugs). The inhibition of parasitaemia was evaluated as described for the mice inoculated with the CQ-sensitive parasites.
# [3] = test system: P. berghei NK65 blood parasites (CQ-sensitive); design: method as in de Souza et al. [19]; details: 25 mg/kg, adapted from earlier paper, ref de Souza et al. [19], cited from earlier work
# [4] = test system: CQ-R P. falciparum parasites (W2 clone); assay: anti-HRPII test, P. falciparum CQ-R W2 clone in culture; format: cell-based, Plasmodium falciparum; details: for SI (MLD50/IC50) W2 (CQ-R): MLD50 HepG2 / IC50 W2; for IC50: Plasmodium falciparum
# Procedure: as §1, §2
# [5] = test system: P. berghei NK65 blood parasites (CQ-sensitive); assay: Suppressive test in mice, CQ-sensitive P. berghei; format: in vivo, P. berghei in Swiss mice; details: for Inhibition of P. berghei parasitaemia, day 5 / Inhibition of P. berghei parasitaemia, day 7: 50 mg/kg dose; for Inhibition of P. berghei parasitaemia, day 5: day 5 after infection; for Inhibition of P. berghei parasitaemia, day 7: day 7 after infection; for Percentage reduction of parasitaemia, CQ-Sensitive, Day 5 / Percentage reduction of parasitaemia, CQ-Sensitive, Day 7: 25 mg/kg oral, four consecutive days, vs non-treated mice; for Percentage reduction of parasitaemia, CQ-Sensitive, Day 5: day 5 after inoculation; for Percentage reduction of parasitaemia, CQ-Sensitive, Day 7: day 7 after inoculation; for Mice surviving the infection at least 30 days after the end of treatment: P. berghei-infected mice, groups of five
# Procedure: as §3
# The suppressive test was performed as described using the P. berghei NK65 blood parasites, with some modifications. Briefly, the blood parasites were maintained through weekly blood passages in mice. For the experiments, groups of 20–30 mice were inoculated with 1 × 10^5 infected erythrocytes. Approximately three hours later, they were randomly distributed into groups of five to six mice per cage, which were treated daily by gavage for four consecutive days. All the compounds were freshly diluted in 3% DMSO (Sigma-Aldrich) in RPMI medium and were administered orally at doses of 25 mg/kg or 50 mg/kg. The control mice received the drug vehicle. On days 5 and 7 after parasite inoculation, blood was taken from the tail of each mouse and used to prepare thin smears, which were methanol-fixed, Giemsa-stained and examined microscopically to determine parasitaemia.
# β-haematin formation = assay: Inhibition of β-haematin formation assay (lipid catalyst); format: biochemical
# Procedure: The assay was performed using a lipid as a catalyst to promote crystallization. Briefly, drug stock solutions were prepared in DMSO and were used at a final concentration of up to 30 mM. A haem stock (10 mM) was made in DMSO and was diluted to 50 μM with 100 mM sodium acetate (pH 4.8). […] The plates were incubated at 37°C for 2 h to allow crystallization, followed by the addition of 100 μl of 200 mM sodium bicarbonate (pH 9.1) to solubilize any remaining monomeric haem. After incubation for 30 min at room temperature, the amount of solubilized monomeric haem was determined by measuring the absorbance at 405 nm. Finally, 20 μl of 1 M sodium hydroxide was added to the plates to dissolve any crystals that had been formed, and the absorbance was read at 405 nm to determine the total amount of haem present in each well. The inhibition of haem crystallization was determined as a function of the amount of monomeric haem that was not crystallized divided by the total amount of haem present in the assay mixture. The results are expressed as IC50 values based on the percentage inhibition of β-haematin formation by the CQAn.
# [6] = 3D7, anti-HRPII method, average ± SD of two to four experiments, read-out: Anti-P. falciparum activity (IC50) 3D7 (CQ-S)
# [7] = 25 mg/kg (footnote b; head says 50 mg/kg)
# [8] = W2, anti-HRPII method, average ± SD of two to four experiments, read-out: Anti-P. falciparum activity (IC50) W2 (CQ-R)
# [9] = 50 mg/kg oral, three consecutive days
# [10] = experiment 1, read-out: Inhibitory concentration of β-haematin formation (IC50), Exp 1
# [11] = experiment 2, read-out: Inhibitory concentration of β-haematin formation (IC50), Exp 2
# [12] = experiment 3, read-out: Inhibitory concentration of β-haematin formation (IC50), Exp 3
SMILES,SI (MLD50/IC50) 3D7 (CQ-S) [1],"IC50 [1, 6]",Activity class against CQ-S parasites (3D7) [1],Cytotoxicity MLD50 HepG2 cells (HepG2 cells),SI (MLD50/IC50) W2 (CQ-R) [4],"IC50 [4, 8]","Inhibition of P. berghei parasitaemia, day 5 [5]","Inhibition of P. berghei parasitaemia, day 7 [5]","Percentage reduction of parasitaemia, CQ-Resistant, Day 5 [2, 9]","Percentage reduction of parasitaemia, CQ-Resistant, Day 7 [2, 9]",IC50 (β-haematin formation; [10]),IC50 (β-haematin formation; [11]),IC50 (β-haematin formation; [12]),"Percentage reduction of parasitaemia, CQ-Sensitive, Day 5 [5]","Percentage reduction of parasitaemia, CQ-Sensitive, Day 7 [5]",other results
C#CCNCCCNc1ccnc2cc(Cl)ccc12 [CQAn28],101,14.9 ± 3.58 µM,inactive,1508.56 ± 344.50 µM,2125,0.71 ± 0.03 µM,,,,,,,,,,"Activity class against CQ-resistant P. berghei in mice [2]: inactive; Percentage reduction of parasitaemia, CQ-Resistant, Day 5 [2, 7]: 0^b %; Percentage reduction of parasitaemia, CQ-Sensitive, Day 5 [3]: 94^a %; Percentage reduction of parasitaemia, CQ-Sensitive, Day 7 [3]: 24^a %"
C#CCNCCCCNc1ccnc2cc(Cl)ccc12 [CQAn33],131,1.17 ± 0.1 µM,partially active (between 1–5 μM as partially active),152.89 ± 12.86 µM,7645,0.02 ± 0.001 µM,100%,100%,53%,52%,4700 µM,3000 µM,5600 µM,,,"Percentage reduction of parasitaemia, CQ-Sensitive, Day 5 [3]: 73^a %; Percentage reduction of parasitaemia, CQ-Sensitive, Day 7 [3]: 57^a %; β-haematin formation IC50 compared with that of CQ (β-haematin formation; relative to CQ): similar; IC50 compared with that of CQ ([4]; relative to CQ, P. falciparum in vitro): more than 10 fold"
C#CCNCCNc1ccnc2cc(Cl)ccc12 [CQAn34],3144,0.3 ± 0.01 µM,active,943.29 ± 73.15 µM,4101,0.23 ± 0.15 µM,,,,,,,,99%,81%,"Activity class against CQ-resistant P. berghei in mice [2]: inactive; Percentage reduction of parasitaemia, CQ-Resistant, Day 5 [2, 7]: 0^b %"
C#CCN(CC#C)CCNc1ccnc2cc(Cl)ccc12 [CQAn37],2981,0.57 ± 0.24 µM,active,1699.24 ± 10.07 µM,24275,0.07 ± 0.03 µM,100%,100%,47%,33%,2700 µM,10200 µM,7500 µM,100%,93%,Mice surviving the infection at least 30 days after the end of treatment [5]: Two of the five
C#CCN(CC#C)CCCNc1ccnc2cc(Cl)ccc12 [CQAn39],1342,2.39 ± 0.11 µM,partially active (between 1–5 μM as partially active),≥3207.08 µM,5011,0.64 ± 0.29 µM,,,62%,30%,,,,95%,92%,
C#CCN(CC#C)CCCCNc1ccnc2cc(Cl)ccc12 [CQAn45],868,1.17 µM,partially active (between 1–5 μM as partially active),1015.84 ± 42.97 µM,,0.77 ± 0.21 µM,,,63%,51%,,,,88%,50%,
"CCN(CC)CCCC(C)Nc1ccnc2cc(Cl)ccc12 (stereo not shown) [Chloroquine, reference compound]",,,,,,,100%,100%,,,600 µM,2000 µM,5000 µM,100%,97%,"IC50 ([1]; 3D7, read-out: Anti-P. falciparum activity (IC50) 3D7 (CQ-S)): 0.081 ± 0.019 µM; Mice surviving the infection at least 30 days after the end of treatment [5]: all; IC50 ([4]; W2, read-out: Anti-P. falciparum activity (IC50) W2 (CQ-R)): 0.38 ± 0.03 µM"
